Test results published in patent US20260000082A1, “STABILIZED LIQUID HERBICIDE FORMULATION OF HIGH-LOAD PYRASULFOTOLE” (ADAMA AGAN LTD., priority 2022, published 2026).

Experiment: Solubility of Pyrasulfotole in solvents with and without organic amine at room temp (24° C.)
Format: physicochemical
Settings: for increase of solubility: 24° C.
Method: Some of the results are tabulated as follows:
Solubility of Pyrasulfotole in Dimethyl sulfoxide (DMSO) and in a mixture of Pyrasulfotole with DMSO and amine at room temp (24° C.) was tested.
Solubility of Pyrasulfotole in Cyclohexanone and in a mixture of Pyrasulfotole with Cyclohexanone and amine at room temp (24° C.) was tested.
Solubility of Pyrasulfotole in Propylene carbonate and in a mixture of Pyrasulfotole with Propylene carbonate and amine at room temp (24° C.) was tested.

## Cc1nn(C)c(O)c1C(=O)c1ccc(C(F)(F)F)cc1S(C)(=O)=O [Pyrasulfotole]
Cyclohexanone/Genamin C-50 66/34 versus Cyclohexanone alone
  increase of solubility: about 400%
DMSO/GENAMIN C-50 66/34 versus DMSO alone
  increase of solubility: about 26%
Propylene carbonate/Genamin C-50 70/30 versus Propylene carbonate alone
  increase of solubility: about 620%
Solvent Cyclohexanone, rate 100, room temp (24° C.)
  Solubility (%): 8.24%
Solvent Cyclohexanone/Genamin C-50, rate 66/34, room temp (24° C.)
  Solubility (%): 32.99%
Solvent DMSO, rate 100, room temp (24° C.)
  Solubility (%): 26.98%
Solvent DMSO/GENAMIN C-50, rate 66/34, room temp (24° C.)
  Solubility (%): 39.24%
Solvent Propylene carbonate, rate 100, room temp (24° C.)
  Solubility (%): 4.59%
Solvent Propylene carbonate/Genamin C-50, rate 70/30, room temp (24° C.)
  Solubility (%): 28.57%
